# Test results as given in publication PMC9333455, “Drug repurposing based on a quantum-inspired method versus classical fingerprinting uncovers potential antivirals against SARS-CoV-2” (PLoS Computational Biology, 2022).
# Where two headings read alike, the source gives them in different places.
# Legend:
# [1] = tested on: Vero E6 cells; assay: Cytotoxicity in uninfected Vero E6 cells, MTT assay
# [2] = tested on: SARS-CoV-2 (England 02/2020/407073 isolate); assay: SARS-CoV-2 replication in Vero E6 cells, plaque assay; assay type: cell-based
# [3] = biological target: SARS-CoV-2 RdRP (Severe acute respiratory syndrome coronavirus 2, UniProt P0DTD1); assay: SARS-CoV-2 RdRP RNA polymerization activity, in vitro fluorescent assay; assay type: biochemical; conditions: for inhibition of RdRP polymerization activity (in words): dose-response, relative to DMSO
# [4] = tested on: SARS-CoV-2; assay: Total and genomic viral RNA levels in cell lysates, RT-qPCR; assay type: cell-based; conditions: Vero E6 and Caco-2 cells, 48 hours after infection
# [5] = design: method as in PMID 25251156; conditions: halted progression from phase II clinical trials; cited from earlier work
# [6] = tested on: SARS-CoV-2; conditions: cited from earlier work
# [7] = Severe acute respiratory syndrome coronavirus 2, Vero C1008, read-out: IC50 (50% decrease in the titre of supernatant virus), MOI 0.05, 48 h
# [8] = purified RdRP, 2 hours at 37°C, middle point between top and bottom plateaus, read-out: relative IC50 (RdRP polymerization activity)
SMILES,"IC50 [2, 7] [µM]",inhibition of RdRP polymerization activity (in words) [3],"IC50 [3, 8] [µM]",also measured
CCC(CC)COC(=O)[C@H](C)N[P@](=O)(OC[C@H]1O[C@@](C#N)(c2ccc3c(N)ncnn23)[C@H](O)[C@@H]1O)Oc1ccccc1 [Remdesivir],1,–,–,cytotoxic effects (in words) [1]: did not exert observable cytotoxic effects
"C/C1=C2/[N-][C@H]([C@H](CC(N)=O)[C@@]2(C)CCC(=O)NC[C@@H](C)OP(=O)([O-])O[C@H]2[C@@H](O)[C@@H](n3cnc4cc(C)c(C)cc43)O[C@@H]2CO)[C@]2(C)N=C(/C(C)=C3N=C(/C=C4N=C1[C@@H](CCC(N)=O)C\4(C)C)[C@@H](CCC(N)=O)[C@]\3(C)CC(N)=O)[C@@H](CCC(N)=O)[C@]2(C)CC(N)=O.[Co+3].[OH-] [Hydroxocobalamin, hydroxocobalamin]",–,inhibited RdRP polymerization activity in a dose-dependent manner,90.4,–
COc1nc(N)nc2c1ncn2[C@@H]1O[C@H](COP(=O)(N[C@@H](C)C(=O)OCC(C)(C)C)Oc2cccc3ccccc23)[C@@H](O)[C@@]1(C)O (some centres unmarked) [BMS-986094],26.6,inhibited RdRP polymerization activity in a dose-dependent manner,–,total and genomic viral RNA levels in cell lysates (in words) [4]: consistently decreasing; concentration at which toxic to cells ([1]; 48 h): > 100 µM; cardiac effects (in words) [5]: harmful cardiac effects; IC50 [3]: 18.4 µM
"C/C1=C2/[N-]C([C@H](CC(N)=O)[C@@]2(C)CCC(=O)NC[C@@H](C)OP(=O)([O-])O[C@H]2[C@@H](O)[C@@H](n3cnc4cc(C)c(C)cc43)O[C@@H]2CO)[C@]2(C)N=C(/C(C)=C3N=C(/C=C4N=C1[C@@H](CCC(N)=O)C\4(C)C)[C@@H](CCC(N)=O)[C@]\3(C)CC(N)=O)[C@@H](CCC(N)=O)[C@]2(C)CC(N)=O.[CH2-][C@H]1O[C@@H](n2cnc3c(N)ncnc32)[C@@H](O)[C@@H]1O.[Co+3] [Cobamamide, cobamamide]",–,inhibited RdRP polymerization activity in a dose-dependent manner,54.4,"cytotoxicity ([1]; highest dose of 1mM): up to 20%; IC50 ([2]; read-out: IC50 (50% decrease in the titre of supernatant virus), MOI 0.05, 48 h): 403 µM"
CC(C)OC(=O)[C@H](C)N[P@+]([O-])(OC[C@H]1O[C@@](C#N)(c2ccc3c(N)ncnn23)[C@](C)(O)[C@@H]1OC(=O)C(C)C)Oc1ccccc1 [GS-6620],–,–,–,efficacy against SARS-CoV-2 (in words) [6]: lack of efficacy against SARS-CoV-2
"C/C1=C2/[N-][C@H]([C@H](CC(N)=O)[C@@]2(C)CCC(=O)NC[C@H](C)OP(=O)([O-])O[C@H]2[C@@H](O)[C@@H](n3cnc4cc(C)c(C)cc43)O[C@@H]2CO)[C@]2(C)N=C(/C(C)=C3N=C(/C=C4N=C1[C@@H](CCC(N)=O)C\4(C)C)[C@@H](CCC(N)=O)[C@]\3(C)CC(N)=O)[C@@H](CCC(N)=O)[C@]2(C)CC(N)=O.[CH3-].[Co+3] [Mecobalamin, methylcobalamin]",–,inhibited RdRP polymerization activity in a dose-dependent manner,85.7,–
